Results published in US12497359B2, “Acrylamide derivatives” (NRG Therapeutics Ltd, priority 2020, dated 2025).
Converted amounts (≈) assume the structure as drawn. Counter-ions that a name gives are not always drawn.

Experiments:
[1] = tested on: mPTP; assay: mPTP activity assay in isolated rat liver mitochondria (Ca2+ retention, Fluo5N, FLIPR); format: biochemical; conditions: isolated rat liver mitochondria; average value from multiple experiments (n ≥ 2)
Description: Pharmacological inhibition or modulation of the mPTP can be measured in well characterised ‘Ca^2+ retention’ assays performed in isolated mitochondria. In vitro, isolated mitochondria rapidly sequester exogenous Ca^2+ until the intramitochondrial Ca^2+ concentration reaches the threshold for mPTP activation. Once the pore is activated, mitochondrial integrity is compromised and the stored Ca^2+ is released. The distribution of Ca^2+ between extra- and intra-mitochondrial compartments can be measured in real time with the use of membrane-impermeant Ca^2+ sensitive fluorescent dyes. Depending on the configuration of the assay, inhibition or modulation of the mPTP either delays the opening of the pore or increases the concentration of Ca^2+ required to induce mPTP opening.
mPTP activity was measured in mitochondria freshly isolated from female Sprague Dawley (250 to 300 gram) rat livers using the following method. Cervical dislocation was performed on the rat. The liver was then perfused in-situ with ˜40 ml cold Dulbecco's Phosphate Buffered Saline (DPBS) prior to dissection and transferred into 30 ml Isolation Buffer (250 mM Sucrose, 10 mM KCl, 1 mM EGTA, 1 mM EDTA, 25 mM HEPES, adjusted to pH 7.5 with 1 M NaOH). Each lobe of the liver was then removed from the buffer, minced using tweezers and a scalpel into ˜5 mm pieces then transferred into a 50 ml Potterton dounce homogenization tube on ice containing 30 ml ice-cold centrifugation buffer (300 mM Trehalose, 25 mM HEPES, 1 mM EGTA, 1 mM EDTA, 10 mM KCl, adjusted to pH 7.5 with 1 M NaOH and supplemented with 0.1% bovine serum albumin (BSA) and complete protease inhibitor cocktail (one tablet of inhibitor per 50 mls of buffer). Homogenisation was carried out using a teflon pestle at 1800 rpm. The slurry was centrifuged at 800 g for 10 min at 4° C., then the supernatant centrifuged at 10,000 g for 10 min. The pellet was washed once with FLIPR assay buffer (75 mM Mannitol, 25 mM Sucrose, 5 mM Potassium Phosphate Monobasic, 20 mM Tris base, 100 mM KCl, 0.1% BSA adjusted to pH 7.4 with 5 M HCl) centrifuged again, then resuspended in FLIPR assay buffer to a concentration of 8.8 mg/ml protein.
Test compounds (10 mM stock in DMSO) were serially diluted in DMSO in half log steps to generate 10 test concentrations (final concentrations in assay 30 μM to 1 nM). An intermediate dilution of 5 μl DMSO samples into 247 μl FLIPR assay buffer was carried out prior to transfer of 5 μl into duplicate wells of a 384 well polypropylene assay plate. Control wells were 0.5% (v/v) DMSO and 5 μM cyclosporin A.
A stock mitochondria/Fluo5N assay solution was prepared in 5.6 ml FLIPR assay buffer (at RT) supplemented with succinate disodium salt (10 mM), rotenone (1 μM), Fluo5N pentapotassium salt (2 μM) and 1 ml mitochondria suspension, then transferred (15 μl) into the assay plate containing test compounds and incubated for 10 min at RT. Assay plates were then transferred to a FLIPR Tetra plate reader (Molecular Devices). Dye fluorescence was then measured every 3 sec for a total of 10 min. After 12 sec, a 2.5 μl bolus of CaCl2 (75 μM) was added from a source plate containing 675 μM CaCl2 in FLIPR assay buffer. IC50 values for test compounds were calculated using the fluorescence value collected at the 10 min timepoint with % inhibition calculated using the DMSO control and cyclosporin A values as […] respectively.

[2] = Hepatocyte clearance assay, rat; format: in vitro ADME; conditions: cryopreserved primary rat hepatocytes, average value from two experiments, read-out: Rat heps intrinsic clearance (CLint)
Protocol: In vitro clearance studies were performed in primary rat and human hepatocytes (BioIVT). Vials of cryopreserved rat or human hepatocytes were thawed in a 37° C. water bath for 2 min. Cells were transferred into thawing medium (Williams' Medium E containing 30% Percoll, 1× GlutaMAX-1, 15 mM HEPES, 5% fetal bovine serum (FBS), 4 μg/ml insulin, 1 μM dexamethasone), centrifuged at 100 g for 10 min then resuspended in culture medium (Leibovitz's L-15 Medium) at a concentration of 0.5×10^6 viable cells/mL (number of viable cells assessed using AO/PI staining). Hepatocytes (198 μL) were transferred into wells of a 96-well non-coated plate and placed in a 37° C. incubator for 10 min. Test compound solutions were prepared from 10 mM stocks in DMSO, diluted to 100 μM in 50% (v/v in water) acetonitrile. Test compound samples (2 μl) were added to each well of hepatocytes and incubated at 37° C. Samples (25 μl) were collected at t=0, 15, 30, […] and 120 min, mixed with 6 volumes (150 μl) of acetonitrile containing internal standard (100 nM alprazolam, 200 nM caffeine and 100 nM tolbutamide), vortexed for 5 min and centrifuged for 45 min at 3220 g. An aliquot of supernatant (100 μL) was diluted with 100 μL ultra-pure water, and the mixture was used for LC/MS/MS analysis. All incubations were performed in duplicate. Peak areas were determined from extracted ion chromatograms. The slope value, k, was determined by linear regression of the natural logarithm of the remaining percentage of the parent drug vs. incubation time curve. The in vitro half-life (in vitro t1/2) was determined from the slope value: in vitro t1/2=0.693/k. Conversion of the in vitro t1/2 (in min) into the in vitro intrinsic clearance (in vitro CLint, in μL/min/1×10^6 cells) was done using the following equation (mean of duplicate determinations): • in vitro CLint=kV/N • V=incubation volume (0.2 mL) • N=number of hepatocytes per well (0.1×10^6 cells). Microsomal Clearance Assay

[3] = PBS solubility; format: physicochemical; conditions: aqueous buffer, kinetic from dmso stock; PBS pH 7.4, 2 hr at 25° C.
Protocol: Test compounds were prepared as 10 mM stocks in DMSO and 15 μl samples transferred in duplicate into 1.5 mL glass flat bottom vials (BioTech Solutions). Fasted state simulated intestinal fluid (FaSSIF) or PBS (pH 7.4) was added to each vial to final volume of 500 μl. One PTFE encapsulated stir stick (V&P Scientific) was placed in each vial before sealing with PTFE/SIL plugs (BioTech Solutions). Vials were shaken at 1100 rpm for 2 hr at 25° C. Samples were then filtered through MultiScreen Solvinert filter plates (Millipore) via vacuum filtration. Aliquots of filtrate (5 μl) plus 5 μl DMSO were diluted in 490 μl 50% acetonitrile in water containing internal standard. The filtrate was analysed and quantified against a standard of known concentration using LC-MS/MS. Solubility values of the test compound and control compound were calculated as follows: [Sample]=(Area ratiosample*INJ VOL STD*DFsample*[STD])/(Area ratio STD*INJ VOLsample).

Row | SMILES | mPTP Rat liver pIC50* [1] | hepatocyte CLint at 1 µM [2] | solubility at 2 h [3]
1 | C[C@@H]1CCCC[C@H]1NC(=O)/C=C/c1ccc2cn[nH]c2c1 (single isomer, unassigned) [Example 4a] | 6.5 | – | –
2 | C[C@@H]1CCCC[C@H]1NC(=O)/C=C/c1ccc2cn[nH]c2c1 (single isomer, unassigned) [Example 4b] | 6.3 | – | –
3 | C[C@@H]1Cc2ccccc2[C@H]1NC(=O)/C=C/c1ccc2cn[nH]c2c1 (single isomer, unassigned) [Example 14d] | 6.2 | – | –
4 | O=C(/C=C/c1ccc2cn[nH]c2c1)N[C@@H]1C[C@@H](F)c2ccccc21 (single isomer, unassigned) [Example 25] | 6.6 | – | –
5 | O=C(/C=C/c1ccc2cn[nH]c2c1)N[C@@H]1C[C@H](F)c2ccccc21 (single isomer, unassigned) [Example 26] | 6.2 | – | –
6 | O=C(/C=C/c1cc2[nH]ncc2cc1F)NC1CCc2ccccc21 (stereo not shown) [Example 10, (E)-N-(2,3-dihydro-1H-inden-1-yl)-3-(5-fluoro-1H-indazol-6-yl)acrylamide] | 7.6 | 60 µL/min/1e6 cells | –
7 | O=C(/C=C/c1cc2[nH]ncc2cc1Cl)NC1CCc2ccccc21 (stereo not shown) [Example 12, (E)-3-(5-chloro-1H-indazol-6-yl)-N-(2,3-dihydro-1H-inden-1-yl)acrylamide] | 6.0 | – | –
8 | CC1Cc2ccccc2C1NC(=O)/C=C/c1ccc2cn[nH]c2c1 (stereo not shown) [Example 14, (E)-3-(1H-indazol-6-yl)-N-(2-methyl-2,3-dihydro-1H-inden-1-yl)acrylamide] | 7.3 | – | –
9 | CC1COc2ccccc2C1NC(=O)/C=C/c1ccc2cn[nH]c2c1 (stereo not shown) [Example 15, (E)-3-(1H-indazol-6-yl)-N-(3-methylchroman-4-yl)acrylamide] | 6.9 | 20 µL/min/1e6 cells | 5.9 µM (≈ 1.97 µg/mL)
10 | O=C(/C=C/c1ccc2cn[nH]c2c1)Nc1ccccc1OCc1ccccc1 [Example 16, (E)-N-(2-(benzyloxy)phenyl)-3-(1H-indazol-6-yl)acrylamide] | 6.0 | – | –
11 | O=C(/C=C/c1ccc2cn[nH]c2c1)Nc1ccccc1COc1ccccc1 [Example 17, (E)-3-(1H-indazol-6-yl)-N-(2-(phenoxymethyl)phenyl)acrylamide] | 6.9 | – | –
12 | O=C(/C=C/c1ccc2cn[nH]c2c1)Nc1ccccc1COC1CCC1 [Example 18, (E)-N-(2-(cyclobutoxymethyl)phenyl)-3-(1H-indazol-6-yl)acrylamide] | 6.7 | – | –
13 | O=C(/C=C/c1ccc2cn[nH]c2c1)Nc1cccc2cnn(Cc3ccccc3)c12 [Example 19, (E)-N-(1-benzyl-1H-indazol-7-yl)-3-(1H-indazol-6-yl)acrylamide] | 7.6 | 179 µL/min/1e6 cells | 0.08 µM (≈ 0.0315 µg/mL)
14 | Cn1ncc2cccc(NC(=O)/C=C/c3ccc4cn[nH]c4c3)c21 [Example 20, (E)-3-(1H-indazol-6-yl)-N-(1-methyl-1H-indazol-7-yl)acrylamide] | 7.5 | 10 µL/min/1e6 cells | 1.3 µM (≈ 0.413 µg/mL)
15 | Cc1cccc(NC(=O)/C=C/c2ccc3cn[nH]c3c2)c1 [Example 21, (E)-3-(1H-indazol-6-yl)-N-(m-tolyl)acrylamide] | 6.5 | – | –
16 | O=C(/C=C/c1ccc2cn[nH]c2c1)Nc1cccc(Cl)c1 [Example 22, (E)-N-(3-chlorophenyl)-3-(1H-indazol-6-yl)acrylamide] | 6.4 | – | –
17 | O=C(/C=C/c1ccc2cn[nH]c2c1)Nc1cccc(F)c1 [Example 23, (E)-N-(3-fluorophenyl)-3-(1H-indazol-6-yl)acrylamide] | 5.9 | – | –
18 | O=C(/C=C/c1ccc2cn[nH]c2c1)Nc1ccccc1CO [Example 27, (E)-N-(2-(hydroxymethyl)phenyl)-3-(1H-indazol-6-yl)acrylamide] | 6.8 | – | –
19 | O=C(/C=C/c1ccc2cn[nH]c2c1)Nc1ccccc1COC1CN(CCF)C1 [Example 30, (E)-N-(2-(((1-(2-fluoroethyl)azetidin-3-yl)oxy)methyl)phenyl)-3-(1H-indazol-6-yl)acrylamide Hydrochloride] | 5.8 | – | –
20 | Cc1cccc(F)c1NC(=O)/C=C/c1ccc2cn[nH]c2c1 [Example 33, (E)-N-(2-fluoro-6-methylphenyl)-3-(1H-indazol-6-yl)acrylamide] | 7.0 | – | –
21 | O=C(/C=C/c1cc2[nH]ncc2cn1)NC1CCc2ccccc21 (stereo not shown) [Example 35, (E)-N-(2,3-dihydro-1H-inden-1-yl)-3-(1H-pyrazolo[4,3-c]pyridin-6-yl)acrylamide] | 5.7 | – | –
22 | Cc1cccc2c1C(NC(=O)/C=C/c1ccc3cn[nH]c3c1)CC2 (stereo not shown) [Example 38, (E)-3-(1H-indazol-6-yl)-N-(7-methyl-2,3-dihydro-1H-inden-1-yl)acrylamide] | 5.0 | – | –
23 | CC1CC(NC(=O)/C=C/c2ccc3cn[nH]c3c2)c2ccccc21 (stereo not shown) [Example 39, (E)-3-(1H-indazol-6-yl)-N-(3-methyl-2,3-dihydro-1H-inden-1-yl)acrylamide] | 5.8 | – | –
24 | C#CCOCc1ccccc1NC(=O)/C=C/c1ccc2cn[nH]c2c1 [Example 40, (E)-3-(1H-indazol-6-yl)-N-(2-((prop-2-yn-1-yloxy)methyl)phenyl)acrylamide] | 7.1 | – | –
